Test results reported in patent US10918713B2, “Epitopes from allergen proteins and methods and uses for immune response modulation” (LA JOLLA INSTITUTE FOR ALLERGY AND IMMUNOLOGY, priority 2012, dated 2021).
Values joined by “and” are separate entries in the source; they are usually repeats but may differ in a detail not shown here. Identical values can stand only once.

Legend:
Assay type in all cases: cell-based, human
[1] = system: PBMC from allergic donors; test: IFN-γ ELISPOT with extract-stimulated short-term lines; conditions: positive donor/peptide response
Description: (§1) Spots were counted by computer-assisted image analysis (Zeiss, KS-ELISPOT reader, Munich, Germany).
(§2) Each assay was performed in triplicate. The level of statistical significance was determined with a Student's t-test using the mean of triplicate values of the response against relevant pools or individual peptides versus the response against the DMSO control.

[2] = system: PBMC from allergic donors; test: IL-5 ELISPOT with extract-stimulated short-term lines; conditions: positive donor/peptide response
Description: as §1, §2

[3] = system: PBMC from allergic donors; test: Dual ELISPOT, total IL-5 and IFN-γ response (SFC); conditions: sum of IFNg and IL-5
Description: as §1, §2

Compound	Response (SFC/10^6) IFNg ([1]; each table line is one donor)	Response (SFC/10^6) IL-5 ([2]; each table line is one donor)	Response (SFC/10^6) Total ([3]; each table line is one donor)	Response (SFC/10^6) IFNg ([1]; one donor per table line)	Response (SFC/10^6) IL-5 ([2]; one donor per table line)	Response (SFC/10^6) Total ([3]; one donor per table line)
3337.0044 (IKLVKSSRPDCSEIP)	90 SFC/10^6	233 SFC/10^6	90 SFC/10^6 and 233 SFC/10^6			
CC[C@H](C)[C@H](NC(=O)[C@H](CC(N)=O)NC(=O)[C@H](CC(C)C)NC(=O)[C@H](CC(N)=O)NC(=O)[C@H](CCCCN)NC(=O)[C@H](CO)NC(=O)[C@H](Cc1ccccc1)NC(=O)[C@@H](NC(=O)[C@@H](NC(=O)[C@H](Cc1c[nH]c2ccccc12)NC(=O)[C@H](CC(C)C)NC(=O)[C@H](CO)NC(=O)[C@H](CCCNC(=N)N)NC(=O)[C@@H](N)CCC(=O)O)[C@@H](C)CC)[C@@H](C)CC)C(=O)N[C@@H](CCCCN)C(=O)O [3324.0517]				97 SFC/10^6	117 SFC/10^6	117 SFC/10^6 and 97 SFC/10^6
CC[C@H](C)[C@H](NC(=O)[C@H](CC(N)=O)NC(=O)[C@@H](NC(=O)[C@H](CC(=O)O)NC(=O)[C@@H](N)CCC(=O)O)[C@@H](C)O)C(=O)N[C@@H](Cc1ccc(O)cc1)C(=O)N[C@@H](CC(N)=O)C(=O)N[C@@H](CO)C(=O)N[C@@H](CC(N)=O)C(=O)N[C@@H](CCC(=O)O)C(=O)N[C@@H](C)C(=O)N[C@@H](Cc1ccccc1)C(=O)N[C@@H](CCCCN)C(=O)N[C@H](C(=O)N[C@@H](CCC(=O)O)C(=O)O)C(C)C [3324.0606]				240 SFC/10^6 and 73 SFC/10^6	427 SFC/10^6	427 SFC/10^6 and 240 SFC/10^6 and 73 SFC/10^6
CC[C@H](C)[C@H](N)C(=O)N[C@@H](Cc1ccccc1)C(=O)N[C@@H](CO)C(=O)N[C@@H](CCC(N)=O)C(=O)N[C@@H](CC(N)=O)C(=O)N[C@@H](CCSC)C(=O)N[C@@H](CC(N)=O)C(=O)N[C@H](C(=O)N[C@@H](CCCCN)C(=O)N[C@@H](CC(C)C)C(=O)N[C@@H](CCC(N)=O)C(=O)N[C@@H](CCSC)C(=O)N1CCC[C@H]1C(=O)N[C@@H](CC(C)C)C(=O)N[C@@H](Cc1ccc(O)cc1)C(=O)O)[C@@H](C)CC [3324.0607]				70 SFC/10^6	2607 SFC/10^6	2607 SFC/10^6 and 70 SFC/10^6
CC[C@H](C)[C@H](NC(=O)[C@H](CC(N)=O)NC(=O)[C@H](CCSC)NC(=O)[C@H](CC(N)=O)NC(=O)[C@H](CCC(N)=O)NC(=O)[C@H](CO)NC(=O)[C@H](Cc1ccccc1)NC(=O)[C@@H](NC(=O)[C@@H](NC(=O)[C@H](Cc1c[nH]c2ccccc12)NC(=O)[C@H](CC(C)C)NC(=O)[C@H](C)NC(=O)[C@H](CCCCN)NC(=O)[C@@H](N)CCC(=O)O)[C@@H](C)CC)[C@@H](C)CC)C(=O)N[C@@H](CCCCN)C(=O)O [3324.0615]				333 SFC/10^6	67 SFC/10^6	400 SFC/10^6
CC[C@H](C)[C@H](N)C(=O)N[C@H](C(=O)N[C@@H](Cc1ccccc1)C(=O)N[C@@H](CO)C(=O)N[C@@H](CCC(N)=O)C(=O)N[C@@H](CC(N)=O)C(=O)N[C@@H](CCSC)C(=O)N[C@@H](CC(N)=O)C(=O)N[C@H](C(=O)N[C@@H](CCCCN)C(=O)N[C@@H](CC(C)C)C(=O)N[C@@H](CCCCN)C(=O)N[C@@H](CCSC)C(=O)N1CCC[C@H]1C(=O)N[C@@H](CC(C)C)C(=O)O)[C@@H](C)CC)[C@@H](C)CC [3324.0618]				80 SFC/10^6 and 73 SFC/10^6	3067 SFC/10^6	80 SFC/10^6 and 3067 SFC/10^6 and 73 SFC/10^6
CC[C@H](C)[C@H](NC(=O)[C@@H](N)CC(=O)O)C(=O)N[C@@H](Cc1ccc(O)cc1)C(=O)N[C@@H](CC(N)=O)C(=O)N[C@@H](Cc1ccc(O)cc1)C(=O)N[C@@H](CCSC)C(=O)N[C@@H](CCC(=O)O)C(=O)N1CCC[C@H]1C(=O)N[C@@H](Cc1ccc(O)cc1)C(=O)N[C@H](C(=O)N[C@@H](CO)C(=O)N[C@@H](CCCCN)C(=O)N[C@H](C(=O)N[C@@H](CC(=O)O)C(=O)N1CCC[C@H]1C(=O)O)C(C)C)C(C)C [3324.0663]				73 SFC/10^6	302 SFC/10^6 and 107 SFC/10^6	73 SFC/10^6 and 302 SFC/10^6 and 107 SFC/10^6
CC(C)C[C@H](NC(=O)[C@H](Cc1ccc(O)cc1)NC(=O)[C@H](C)NC(=O)[C@H](CO)NC(=O)[C@H](CCC(=O)O)NC(=O)[C@@H](NC(=O)[C@H](C)NC(=O)[C@H](C)NC(=O)[C@@H](NC(=O)CNC(=O)[C@@H](N)CO)C(C)C)[C@@H](C)O)C(=O)N[C@@H](C)C(=O)N[C@@H](Cc1ccc(O)cc1)C(=O)N[C@@H](CCCNC(=N)N)C(=O)N[C@@H](CC(N)=O)C(=O)O [3324.0829]				340 SFC/10^6 and 237 SFC/10^6	347 SFC/10^6 and 167 SFC/10^6	687 SFC/10^6 and 403 SFC/10^6
CC[C@H](C)[C@H](NC(=O)CNC(=O)[C@@H](N)CCCNC(=N)N)C(=O)N[C@@H](CCC(=O)O)C(=O)N[C@@H](Cc1ccc(O)cc1)C(=O)N[C@H](C(=O)N[C@@H](CCC(N)=O)C(=O)N[C@@H](Cc1c[nH]cn1)C(=O)N[C@@H](CC(N)=O)C(=O)NCC(=O)N[C@H](C(=O)N[C@H](C(=O)N[C@@H](CCC(N)=O)C(=O)N[C@@H](CCC(=O)O)C(=O)N[C@@H](CO)C(=O)O)C(C)C)C(C)C)[C@@H](C)CC [3324.0831]				220 SFC/10^6	567 SFC/10^6 and 103 SFC/10^6	567 SFC/10^6 and 323 SFC/10^6
CC(C)[C@H](NC(=O)CNC(=O)[C@H](CO)NC(=O)[C@H](Cc1ccccc1)NC(=O)[C@H](C)NC(=O)[C@H](Cc1c[nH]c2ccccc12)NC(=O)[C@H](CS)NC(=O)[C@@H](N)CO)C(=O)N[C@@H](C)C(=O)N[C@@H](C)C(=O)N[C@H](C(=O)N[C@@H](CCC(=O)O)C(=O)N[C@@H](CO)C(=O)N[C@@H](C)C(=O)N[C@@H](Cc1ccc(O)cc1)C(=O)O)[C@@H](C)O [3324.0832]				843 SFC/10^6 and 233 SFC/10^6	460 SFC/10^6 and 773 SFC/10^6	1303 SFC/10^6 and 1007 SFC/10^6
CC[C@H](C)[C@H](NC(=O)[C@@H](NC(=O)[C@@H](NC(=O)[C@H](C)NC(=O)[C@@H](NC(=O)[C@H](C)NC(=O)[C@H](CO)NC(=O)[C@H](Cc1c[nH]cn1)NC(=O)[C@@H](NC(=O)[C@H](CCC(N)=O)NC(=O)[C@H](C)NC(=O)[C@H](CC(C)C)NC(=O)[C@H](C)NC(=O)[C@H](CCC(=O)O)NC(=O)[C@@H](N)CCCNC(=N)N)[C@@H](C)O)[C@@H](C)CC)C(C)C)[C@@H](C)CC)C(=O)O [3324.0840]				1407 SFC/10^6	477 SFC/10^6 and 900 SFC/10^6	1883 SFC/10^6 and 900 SFC/10^6
CC[C@H](C)[C@H](NC(=O)[C@H](CCSC)NC(=O)[C@H](CCCNC(=N)N)NC(=O)[C@H](Cc1ccccc1)NC(=O)[C@H](CCCCN)NC(=O)[C@@H](NC(=O)[C@H](CCSC)NC(=O)[C@H](CC(N)=O)NC(=O)[C@H](Cc1ccc(O)cc1)NC(=O)[C@@H](NC(=O)[C@@H](N)CCC(=O)O)[C@@H](C)CC)C(C)C)C(=O)N[C@@H](C)C(=O)NCC(=O)N[C@@H](CCC(N)=O)C(=O)N[C@@H](CCC(=O)O)C(=O)O [3324.0978]				667 SFC/10^6	167 SFC/10^6 and 1100 SFC/10^6	167 SFC/10^6 and 1100 SFC/10^6 and 667 SFC/10^6
CC[C@H](C)[C@H](NC(=O)[C@H](CCC(=O)O)NC(=O)[C@H](CCCNC(=N)N)NC(=O)[C@H](Cc1c[nH]c2ccccc12)NC(=O)[C@H](CCCNC(=N)N)NC(=O)[C@H](Cc1c[nH]cn1)NC(=O)[C@@H](N)CCC(=O)O)C(=O)N[C@@H](Cc1ccc(O)cc1)C(=O)N[C@@H](CC(N)=O)C(=O)N[C@@H](CCSC)C(=O)N[C@H](C(=O)N[C@@H](CCCCN)C(=O)N[C@@H](Cc1ccccc1)C(=O)N[C@@H](CCCNC(=N)N)C(=O)N[C@@H](CCSC)C(=O)O)C(C)C [3324.0986]				1007 SFC/10^6	300 SFC/10^6 and 80 SFC/10^6 and 402 SFC/10^6	300 SFC/10^6 and 1007 SFC/10^6 and 80 SFC/10^6 and 402 SFC/10^6
CC[C@H](C)[C@H](NC(=O)[C@@H]1CCCN1C(=O)[C@H](CC(N)=O)NC(=O)[C@H](C)NC(=O)[C@H](Cc1ccc(O)cc1)NC(=O)[C@@H](N)CCCNC(=N)N)C(=O)N[C@@H](C)C(=O)N[C@@H](Cc1ccccc1)C(=O)N[C@@H](Cc1ccccc1)C(=O)N[C@@H](CCCNC(=N)N)C(=O)N[C@@H](CCCCN)C(=O)N[C@@H](CCC(=O)O)C(=O)N1CCC[C@H]1C(=O)N[C@@H](CC(C)C)C(=O)N[C@@H](CCCCN)C(=O)O [3324.1138]				440 SFC/10^6	1697 SFC/10^6	2137 SFC/10^6
CC[C@H](C)[C@H](NC(=O)[C@H](CCC(=O)O)NC(=O)[C@H](Cc1c[nH]c2ccccc12)NC(=O)[C@@H](NC(=O)CNC(=O)[C@@H](N)CC(=O)O)C(C)C)C(=O)N[C@@H](CCCCN)C(=O)N[C@@H](CO)C(=O)N[C@@H](CC(=O)O)C(=O)N[C@@H](CCCCN)C(=O)N1CCC[C@H]1C(=O)N[C@@H](CC(C)C)C(=O)N[C@@H](CCCCN)C(=O)NCC(=O)N1CCC[C@H]1C(=O)O [3324.1139]		577 SFC/10^6 and 287 SFC/10^6	577 SFC/10^6 and 287 SFC/10^6	103 SFC/10^6 and 83 SFC/10^6	83 SFC/10^6	103 SFC/10^6 and 167 SFC/10^6
CC[C@H](C)[C@H](NC(=O)[C@@H](NC(=O)[C@H](CCC(=O)O)NC(=O)[C@H](CC(=O)O)NC(=O)[C@H](Cc1ccccc1)NC(=O)[C@@H](NC(=O)[C@@H](N)CC(N)=O)C(C)C)C(C)C)C(=O)N1CCC[C@H]1C(=O)N[C@H](C(=O)N[C@@H](C)C(=O)N[C@@H](Cc1ccccc1)C(=O)N[C@H](C(=O)N[C@H](C(=O)NCC(=O)N[C@@H](CCCCN)C(=O)O)C(C)C)[C@@H](C)O)[C@@H](C)O [3324.1141]	263 SFC/10^6	2258 SFC/10^6 and 820 SFC/10^6	2258 SFC/10^6 and 1083 SFC/10^6			
